# Results taken from EP4806903A1, “WHOLE-PROCESS TARGETING POLYPEPTIDE, PHARMACEUTICAL COMPLEX THEREOF, DRUG DELIVERY SYSTEM AND USE THEREOF” (Fudan University, priority 2023, dated 2025).
# Where no end group is shown, it is not given here. [ ]: non-standard residue; d: D form.
# Experiments:
# [1] = Maximum tolerated dose study; set-up: species or system Male Balb/c mice; settings: mouse, in vivo, iv; tail vein, 14 days monitoring; dose at which no mice died; expressed as DOX
# Method: The body weight changes of the mice were recorded daily (relative body weight change = daily body weight / initial body weight), with continuous monitoring for 14 days to observe whether any mice died.
# Tumor cells U87 = assay: Intracellular DOX detection in U87 cells; format: cell-based; settings: 4 hours, 37°C
# Method: Tumor cells U87 in the logarithmic growth phase and macrophages RAW264.7, both cultured as monolayers, were detached from the culture dishes by digestion with 0.25% trypsin. The single-cell suspensions were prepared in DMEM medium supplemented with 10% fetal bovine serum. Each well of a 6-well plate was seeded with 5 × 10^5 cells in a volume of 2 mL per well. The plates were then transferred to a CO2 incubator and cultured overnight at 37°C under conditions of 5% CO2 and saturated humidity. After overnight incubation, the culture medium was wholly aspirated from each well. DOX, pHA-AHX-VAP-DOX, and pHA-AOnHX-VAP-DOX (n = 1, 2, 3, 5) solutions were added to the wells, and the cells were incubated at 37°C for 4 hours. The supernatant was then discarded. Following cell collection by trypsinization, the cells were washed three times with PBS and counted. After the final wash, any remaining supernatant was wholly removed. To the cell pellet, acidified methanol (Vmethanol : Vmethanoic acid = 98:2) was added, and the cells were subjected to sonication. After centrifugation at 10,000 rpm for 10 minutes, the supernatant was collected and analyzed for DOX concentration.
# U87 orthotopic glioma = assay: In vivo pharmacodynamic study, survival of U87 orthotopic glioma mice; set-up: species or system nude mice; settings: single dose of DOX 1 mg/kg, intravenous, every other day from day 5
# Method: Approximately 20 g nude mice were anesthetized and fixed onto a stereotaxic apparatus. Orthotopic glioma mouse model was established by injecting 5 µL of U87 cell suspension (5×10^5 cells) with microsyringe into the striatum of the mice (0.6 mm anteroposterior to the bregma, 1.8 mm lateral to the midline, and 3 mm deep). On day 5 after tumor implantation, the mice were randomly divided into four groups, with 10 mice per group.
# GRP78 protein [2] = assay: Western blot of GRP78 protein on the cell membrane of U87 cells; format: cell-based
# Method: After cells were subjected to various treatments, the culture medium was removed, and the cells were washed twice with pre-cooled PBS. The cells were then scraped off and collected into an EP tube. Membrane proteins were extracted using a cell membrane protein extraction kit, followed by centrifugation at 12,000 rpm at 4°C to obtain the supernatant, which was stored for later use. The total protein concentration was determined using the BCA assay, after which the sample was mixed with 5× loading buffer at a ratio of 4:1 and heated to denature the proteins. The samples were stored at -20°C for future use. Samples containing approximately 40 µg of protein were subjected to 15% polyacrylamide gel electrophoresis and then transferred onto polyvinylidene fluoride (PVDF) membranes. […]
# After U87 cells were treated with free DOX at different concentrations for 48 hours, membrane proteins were extracted and detected using the method described above.
# After U87 cells were treated with different concentrations of TMZ for 48 hours, membrane proteins were extracted and detected using the method described above.
# After U87 cells were treated with 5 µg/mL TMZ for varying durations, membrane proteins were extracted and analyzed using the method described above.
# [3] = Saturation solubility in PBS; format: physicochemical; settings: aqueous buffer, PBS pH 7.4, 37°C, calculated based on DOX
# Method: The mixture was incubated at 37°C for 24 hours, then filtered through a membrane of 0.22 µm. The filtrates were subsequently diluted 10-fold and 20-fold, respectively, and the concentration of DOX was measured.
# GRP78 protein [4] = assay: Western blot of GRP78 protein in tumors of orthotopic glioma mice; format: in vivo, nude mice; settings: TMZ 10 mg/mL by gavage, after 48 hours
# in situ glioma = assay: Efficacy of TMZ combined with peptide-DOX complex in in situ glioma; settings: TMZ 10 mg/kg by gavage Days 3-21; pHA-AO1HX-VAP-DOX equivalent to 3 mg/kg DOX tail vein Days 5-23; n = 10
# Method: The in situ glioma model was established as above, with the day of modeling set as Day 0. On Days 3, 5, 7, 9, 11, 13, 15, 17, 19, and 21, mice were administered TMZ by gavage at a single dose of 10 mg/kg.
# [5] = In vivo distribution in nude mouse model of orthotopic glioma; set-up: species or system nude mice; settings: DOX dose 5 mg/kg, tail vein, 30 minutes; compared to free DOX
# Method: Approximately 22 g nude mice were anesthetized and fixed onto a stereotaxic apparatus. An orthotopic glioma mouse model was established by injecting 5 µL of U87 cell suspension (8×10^5 cells) with microsyringe into the striatum of the mice (0.6 mm anteroposterior to the bregma, 1.8 mm lateral to the midline, and 3 mm ventral to the surface). Ten days after tumor implantation, the mice were administered DOX (5 mg/kg) or pHA-AOnHX-VAP-DOX (n = 1, 2, 3, 5; DOX dose: 5 mg/kg) via tail vein injection. Thirty minutes later, the mice were anesthetized, perfused with PBS, and the major organs including the brain, heart, liver, spleen, lungs, and kidneys were collected. The tissues from each organ were blotted dry with filter paper and weighed. Then, according to the weight of each organ, a specific volume of isopropanol containing 0.075 M HCl and 10% water was added, followed by homogenization. After overnight incubation at 4°C, the samples were centrifuged, and the supernatants were collected for analysis. […] As depicted in Figure 30, the accumulation of DOX in the heart was reduced by pHA-AOnHX-VAP-DOX (n = 1, 2, 3, 5), while the drug concentration in the blood was increased.
# [6] = molecular target: glucose-regulated protein GRP78 (Homo sapiens, UniProt P11021); settings: previously validated by research team; cited from earlier work
# Sequence of glucose-regulated protein GRP78 (P11021 19-654): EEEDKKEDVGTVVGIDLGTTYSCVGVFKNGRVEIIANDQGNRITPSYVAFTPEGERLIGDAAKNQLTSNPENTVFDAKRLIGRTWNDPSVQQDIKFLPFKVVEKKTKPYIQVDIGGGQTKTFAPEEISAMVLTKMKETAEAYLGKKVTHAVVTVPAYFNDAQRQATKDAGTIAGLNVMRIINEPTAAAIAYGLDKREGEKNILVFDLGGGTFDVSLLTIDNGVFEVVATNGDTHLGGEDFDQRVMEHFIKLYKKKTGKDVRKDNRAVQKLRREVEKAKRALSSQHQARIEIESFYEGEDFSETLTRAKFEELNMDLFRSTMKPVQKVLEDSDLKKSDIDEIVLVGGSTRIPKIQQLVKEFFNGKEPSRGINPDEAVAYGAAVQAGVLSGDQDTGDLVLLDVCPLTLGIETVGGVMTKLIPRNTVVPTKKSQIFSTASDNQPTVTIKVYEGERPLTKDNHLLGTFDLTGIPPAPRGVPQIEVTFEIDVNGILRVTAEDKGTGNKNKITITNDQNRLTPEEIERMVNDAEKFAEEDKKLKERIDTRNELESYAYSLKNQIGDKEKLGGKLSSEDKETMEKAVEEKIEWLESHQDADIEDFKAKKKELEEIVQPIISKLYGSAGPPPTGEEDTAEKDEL
molecule,measurement,setting,value
"COc1cccc2c1C(=O)c1c(O)c3c(c(O)c1C2=O)C[C@@](O)(C(=O)CO)C[C@@H]3O[C@H]1C[C@H](N)[C@H](O)[C@H](C)O1 [DOX, doxorubicin]",MTD at 336 h,[1],~10 mg/kg
same,uptake by U87 cells (intracellular DOX),Tumor cells U87,higher cellular uptake
same,median survival time,U87 orthotopic glioma,35.5 days
same,expression of GRP78 protein on the cell membrane surface of U87 cells,"GRP78 protein [2]; different concentrations, 48 hours",significantly upregulated
same,solubility at 24 h,[3],220 ± 30 µg/mL
"Cn1nnc2c(C(N)=O)ncn2c1=O [TMZ, temozolomide]",expression of GRP78 protein in tumor tissue relative to control group,GRP78 protein [4],1.45 times
same,median survival time,in situ glioma,48 days
same,time after which GRP78 protein on the cell membrane began to significantly upregulate,"GRP78 protein [2]; 5 µg/mL TMZ, varying durations up to 48 hours",12 h
COc1cccc2c1C(=O)c1c(O)c3c(c(O)c1C2=O)C[C@@](O)(C(CO)=NNC(=O)CCCCCN1C(=O)CC(SC[C@H](NC(=O)CCOCCOCCNC(=O)c2ccc(O)cc2)C(=O)N2CCC[C@@H]2C(=O)N[C@H](C)C(=O)N[C@@H](C(=O)N[C@H](CCCNC(=N)N)C(=O)N[C@@H](C(=O)N[C@H](CC(N)=O)C(=O)N[C@H](CO)C(=O)O)[C@H](C)O)C(C)C)C1=O)C[C@@H]3O[C@H]1C[C@H](N)[C@H](O)[C@H](C)O1 (stereo partly drawn) [pHA-AO2HX-VAP-DOX],brain accumulation of DOX,[5],greatest increase
"^DVAP: D-type amino acid sequence ^DP^DA^DV^DR^DT^DN^DS, SEQ ID NO: 3 ([dP][dA][dV][dR][dT][dN][dS])",binding affinity to glucose-regulated protein GRP78,[6],high binding affinity
"^LVAP: L-type amino acid sequence SNTRVAP, SEQ ID NO: 1",binding affinity to glucose-regulated protein GRP78,[6],high binding affinity
"^SVAP: D-type amino acid sequence ^DS^DN^DT^DR^DV^DA^DP, SEQ ID NO: 4 (SNTRVAP; all D-amino acids; VARIANT 1..7: note = D type amino acid)",binding affinity to glucose-regulated protein GRP78,[6],high binding affinity
